Marks after values point to notes of the source that are not given here.
Columns and labels:
IL-6 = experiment: Synthesis of IL-6 in LPS-stimulated activated murine peritoneal macrophages; assay type: cell-based, mouse; details: for IL-6 pg/ml: LPS 1 μg/ml, 24 h, average of three parallel tests; for IL-6 Effect (%): percentage change vs solvent control
Method: (§1) The influence of compound II on the synthesis of the proinflammatory cytokines IL-1β, TNF-α and IL-6 was determined by using activated murine peritoneal macrophages. In order to recover the activated macrophages 3×10^9 killed coryn bacterium parvum bacteria (Changzhou Yanshen Co. Ltd., Changzhou, China) in 0.5 ml PBS were injected intraperitoneally into male NMRI mice (Centre d'Elevage Janvier, Le Genest-Saint Isle, France). 6 days later the abdominal cavity was rinsed with 2.5 ml Hanks' balanced saline solution (HBSS) free of calcium and magnesium added with 10 U/ml heparine. The cells were resuspended at a concentration of 2×10^6 cells/ml in complete RPMI medium supplemented with 10% fetal bovine serum. […] cell suspension were filled into the wells of 96-well microtiter plates, respectively. After an incubation period of 2 h non-adherent cells were removed and the remaining cell lawn was washed twice with culture medium (37° C.). The macrophages were preincubated for 30 min. with compound II and then the synthesis of proinflammatory cytokines was induced by adding 1 μg/ml lipopolysaccharide of E. coli (serotype 0127:B8, Sigma, Deisenhofen). After incubating for 24 h (37° C., 5% CO2 in air) the cells were lysed by freezing and thawing for three times, the cell supernatants were recovered and frozen at −80° C. until analysed. The determination of the cytokine concentration in the cell supernatant was effected by means of commercial test kits (Duosets IL-1β, TNF-α and IL-6, R&D, Wiesbaden) in correspondence with the manufacturer's instructions. All investigations were conducted three times. The influence of compound II on the synthesis of the cytokines was evaluated in comparison to solvent controls (0.1% DMSO in complete RPMI medium) that were tested simultaneously.

lipoxygenase (LO) = biological target: T1, lipoxygenase (LO) (Homo sapiens, UniProt P09917); experiment: Lipoxygenase activity in human whole blood (cystenyl-LT after A23187); assay type: cell-based; details: for Cystenyl-LT: A23187 50 μM; for Cystenyl-LT Effect (%): percentage change vs solvent control
T1 construct: endogenous in cells; host or cells: heparinised human whole blood (leukocytes), stimulated with A23187
T1 sequence (P09917 1-674): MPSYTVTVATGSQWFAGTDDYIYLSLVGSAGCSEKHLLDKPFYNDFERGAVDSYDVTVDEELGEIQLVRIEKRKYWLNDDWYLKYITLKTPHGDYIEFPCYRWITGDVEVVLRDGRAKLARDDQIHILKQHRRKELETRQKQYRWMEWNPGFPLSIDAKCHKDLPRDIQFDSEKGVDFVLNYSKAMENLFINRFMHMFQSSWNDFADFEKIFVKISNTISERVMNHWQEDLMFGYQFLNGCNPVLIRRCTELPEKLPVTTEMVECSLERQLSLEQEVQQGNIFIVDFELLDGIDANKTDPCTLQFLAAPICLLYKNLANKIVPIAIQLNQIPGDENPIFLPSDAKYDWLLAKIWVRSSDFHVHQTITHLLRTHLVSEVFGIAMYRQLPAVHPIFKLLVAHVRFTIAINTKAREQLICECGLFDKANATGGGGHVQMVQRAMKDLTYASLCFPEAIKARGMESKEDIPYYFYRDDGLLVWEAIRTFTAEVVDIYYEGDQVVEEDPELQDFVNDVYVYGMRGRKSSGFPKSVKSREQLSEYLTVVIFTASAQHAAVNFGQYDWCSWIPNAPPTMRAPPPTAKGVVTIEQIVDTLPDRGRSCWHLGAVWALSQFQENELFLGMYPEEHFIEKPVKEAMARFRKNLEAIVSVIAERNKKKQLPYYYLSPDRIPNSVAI
Method: (§2) Heparinised human whole blood was used for the investigations. 100 μl of whole blood were added into each well of 96-well microtiter plates. Separated plates were used for the determination of the cyclooxygenase-1 (COX1) and lipoxygenase (LO) activiy as well as for the induction of cyclooxygenase-2 (COX2).
(§3) Compound II was diluted in DME medium (DMEM) with 1% of antibiotics/antimycotics solution and 2 mM L-glutamine (Sigma, Deisenhofen) using DMSO (final concentration 0.1%) as solubility promoter. After adding 50 μl of compound II the tests were incubated for 60 min. at 37° C. Subsequently, 50 μl of calciumionophor A23187 (final concentration 50 μM) were added to stimulate the eicosanoid synthesis. After incubating for further 30 min. at 37° C. the microtiter plates were centrifuged for 5 min. at 4° C. with 1500 g. The plasma was pipetted off and frozen at −80° C. until analysed.
(§4) In the plasma samples TXB2, PGE2 and cystenyl leukotrienes (cystenyl-LT) were determined as parameters for the COX1, COX2 and LO activity. For the analysis commercial EIA test kits (TXB2 and PGE2: Caymann/IBL, Hamburg; cystenyl leukotrienes: CAST-2000, Milenia, Bad Nauheim) were used in accordance with the manufacturers' instructions. […] This spectrum of efficacy is to be regarded as extremely advantageous because in the therapeutic use of compound II the side effects typical of COX1 inhibitors, such as gastrointestinal complications (erosions, ulcerations) or hemorrhages due to the inhibition of the thrombocyte aggregation need therefore not to be taken into consideration.

IL-1β = experiment: Synthesis of IL-1β in LPS-stimulated activated murine peritoneal macrophages; assay type: cell-based, mouse; details: for IL-1β: LPS 1 μg/ml, 24 h, average of three parallel tests; for IL-1β Effect (%): percentage change vs solvent control
Method: as §1

cyclooxygenase-1 (COX1) = biological target: T2, cyclooxygenase-1 (COX1) (Homo sapiens, UniProt P23219); experiment: Cyclooxygenase-1 activity in human whole blood (TXB2 after A23187); assay type: cell-based; details: for TXB2: A23187 50 μM; for TXB2 Effect (%): percentage change vs solvent control
T2 construct: endogenous in cells; host or cells: heparinised human whole blood (platelets), stimulated with A23187
Method: as §2, §3, §4

[1] = tested on: autoxidation of lipids (brain tissue of male mice); experiment: Inhibition of autoxidation of lipids in mouse brain homogenate (chemiluminescence); assay type: biochemical, mice (NMRI); details: chemiluminescence over 60 minutes, vs solvent control
Text: The autoxidation of lipids is associated with the emission of light. The determination of this extraordinarily weak chemiluminescence can be used for both quantifying peroxides and evaluating the efficacy of antioxidants. Brain tissue of male mice (NMRI; 20-30 g; Centre d'Elevage Janvier, Le Genest-Saint Isle, France) served as lipid-rich tissue in the present investigations. After its extraction the brain was washed with ice-cold phosphate-buffered physiological saline solution (PBS, pH 7.4) and freed from meninges and residual blood. The tissue samples were homogenised with 4 times their volume (v/w) made up of PBS and centrifugated at 1000×g and 4° C. for 10 minutes. The supernatants were immediately diluted with the same buffer to 3 times their volume and stored on ice. 250 μl of the diluted supernatant was transferred into a test tube and incubated for 10 minutes at 37° C. in a 6-channel luminometer (Multi-Biolumat LB 9505 C, Berthold, Bad Wildbad). After adding 25 μl of compound II in PBS added with 2.5% DMSO the incubation was continued for further 10 minutes. Then the intensity of the chemiluminescence (CL) was determined over a period of 60 minutes. The percentage of the inhibition of the autoxidation was calculated in comparison to the solvent control (PBS added with 2.5% DMSO) measured simultaneously. […]

TNF-α = experiment: Synthesis of TNF-α in LPS-stimulated activated murine peritoneal macrophages; assay type: cell-based, mouse; details: for TNF-α: LPS 1 μg/ml, 24 h, average of three parallel tests; for TNF-α Effect (%): percentage change vs solvent control
Method: as §1

cyclooxygenase-2 (COX2) = biological target: T3, cyclooxygenase-2 (COX2) (Homo sapiens, UniProt P35354); experiment: Cyclooxygenase-2 activity in human whole blood (PGE2 after aspirin pretreatment and LPS); assay type: cell-based; details: for PGE2: aspirin pretreated, LPS 10 μg/ml, 18 h; for PGE2 Effect (%): percentage change vs solvent control
T3 construct: to induce the expression of COX2 25 μl of lipopolysaccharide of E. coli; endogenous in cells; host or cells: heparinised human whole blood, aspirin-pretreated, COX2 induced with LPS
T3 sequence (P35354 18-604): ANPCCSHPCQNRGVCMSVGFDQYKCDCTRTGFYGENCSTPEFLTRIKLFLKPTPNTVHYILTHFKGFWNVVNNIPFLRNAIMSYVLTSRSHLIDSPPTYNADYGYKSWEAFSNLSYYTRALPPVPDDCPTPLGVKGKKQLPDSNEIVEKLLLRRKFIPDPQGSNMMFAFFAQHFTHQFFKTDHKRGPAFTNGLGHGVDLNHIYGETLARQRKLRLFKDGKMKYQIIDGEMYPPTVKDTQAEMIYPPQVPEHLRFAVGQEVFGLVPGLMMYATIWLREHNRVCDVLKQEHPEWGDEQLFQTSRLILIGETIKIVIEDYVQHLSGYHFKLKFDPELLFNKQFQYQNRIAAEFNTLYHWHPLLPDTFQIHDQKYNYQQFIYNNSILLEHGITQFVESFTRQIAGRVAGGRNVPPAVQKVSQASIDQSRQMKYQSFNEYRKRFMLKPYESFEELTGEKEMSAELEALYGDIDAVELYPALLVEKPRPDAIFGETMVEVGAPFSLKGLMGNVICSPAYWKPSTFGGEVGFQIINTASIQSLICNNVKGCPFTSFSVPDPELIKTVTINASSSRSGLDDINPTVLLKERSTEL
Method: as §2
Then compound II and the solvent (DMEM with 0.1% DMSO), respectively, were added in a volume of 25 μl. Moreover, to induce the expression of COX2 25 μl of lipopolysaccharide of E. coli (serotype 0127:B8, final concentration 10 μg/ml) were added. After incubating for 18 h at 37° C. the plasma was recovered as described above and also stored at −80° C. until analysed.
as §4

[2] = 10 μg/ml (first line so printed, r17-18), human whole blood
[3] = 10 μg/ml (first line so printed, r17-18)
[4] = 10 μg/ml (second line so printed, r19-20), human whole blood
[5] = 10 μg/ml (second line so printed, r19-20)
[6] = 30 μg/ml, human whole blood, average of two parallel tests
[7] = 100 μg/ml, human whole blood, average of two parallel tests

T2 sequence (P23219 24-599): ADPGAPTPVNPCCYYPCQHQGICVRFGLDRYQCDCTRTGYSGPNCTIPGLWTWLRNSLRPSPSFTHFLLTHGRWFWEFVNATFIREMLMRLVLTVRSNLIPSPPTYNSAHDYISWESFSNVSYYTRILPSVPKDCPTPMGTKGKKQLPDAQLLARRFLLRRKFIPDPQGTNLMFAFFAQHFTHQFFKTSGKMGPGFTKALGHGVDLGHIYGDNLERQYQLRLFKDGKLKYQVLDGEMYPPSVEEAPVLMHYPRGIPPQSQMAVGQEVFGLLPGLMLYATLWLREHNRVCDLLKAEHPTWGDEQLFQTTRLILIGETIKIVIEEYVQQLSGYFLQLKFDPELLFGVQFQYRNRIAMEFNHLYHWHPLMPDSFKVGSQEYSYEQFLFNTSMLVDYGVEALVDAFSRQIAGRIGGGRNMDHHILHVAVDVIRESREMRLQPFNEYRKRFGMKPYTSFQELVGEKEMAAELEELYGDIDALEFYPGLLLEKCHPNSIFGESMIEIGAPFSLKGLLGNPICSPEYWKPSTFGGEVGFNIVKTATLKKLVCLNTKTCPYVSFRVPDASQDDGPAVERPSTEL

## O=c1ccc2cc(O)c(O)c(O)c2o1 [Compound II, 6,7,8-Trihydroxy-2H-1-benzopyran-2-one]
IL-6; 10 μg/ml
  IL-6 pg/ml: 23078 pg/mL
  IL-6 Effect (%): −27* %
IL-6; 30 μg/ml
  IL-6 pg/ml: 22519 pg/mL
  IL-6 Effect (%): −28* %
IL-6; 100 μg/ml
  inhibition of the synthesis of IL-6 (in words): significant inhibition
  IL-6 pg/ml: 976 pg/mL
  IL-6 Effect (%): −97* %
Lipoxygenase (LO); [2]
  Cystenyl-LT: 3557 pg/mL
Lipoxygenase (LO); [3]
  Cystenyl-LT Effect (%): −51%
Lipoxygenase (LO); [4]
  Cystenyl-LT: 5193 pg/mL
Lipoxygenase (LO); [5]
  Cystenyl-LT Effect (%): −28%
Lipoxygenase (LO); [6]
  Cystenyl-LT: 2089 pg/mL
Lipoxygenase (LO); 30 μg/ml
  Cystenyl-LT Effect (%): −71%
Lipoxygenase (LO); [7]
  Cystenyl-LT: 661 pg/mL
Lipoxygenase (LO); 100 μg/ml
  Cystenyl-LT Effect (%): −91%
Lipoxygenase (LO); human whole blood
  inhibition of the activity of LO (in words): potent inhibition
IL-1β; 10 μg/ml
  IL-1β: 3789 pg/mL
  IL-1β Effect (%): +7%
IL-1β; 30 μg/ml
  IL-1β: 3356 pg/mL
  IL-1β Effect (%): −6%
IL-1β; 100 μg/ml
  inhibition of the synthesis of IL-1β (in words): significant inhibition
  IL-1β: 430 pg/mL
  IL-1β Effect (%): −88* %
cyclooxygenase-1 (COX1); [2]
  TXB2: 7825 pg/mL
cyclooxygenase-1 (COX1); [3]
  TXB2 Effect (%): −20%
cyclooxygenase-1 (COX1); [4]
  TXB2: 7278 pg/mL
cyclooxygenase-1 (COX1); [5]
  TXB2 Effect (%): −26%
cyclooxygenase-1 (COX1); [6]
  TXB2: 9993 pg/mL
cyclooxygenase-1 (COX1); 30 μg/ml
  TXB2 Effect (%): +2%
cyclooxygenase-1 (COX1); [7]
  TXB2: 9115 pg/mL
cyclooxygenase-1 (COX1); 100 μg/ml
  TXB2 Effect (%): −7%
cyclooxygenase-1 (COX1); human whole blood
  effect on the activity of COX1 (in words): hardly affected
[1]
  half-maximal inhibitory concentration, autoxidation of lipids: 53 ng/mL
TNF-α; 10 μg/ml
  TNF-α: 10050 pg/mL
  TNF-α Effect (%): +19%
TNF-α; 30 μg/ml
  TNF-α: 10189 pg/mL
  TNF-α Effect (%): +21%
TNF-α; 100 μg/ml
  inhibition of the synthesis of TNF-α (in words): significant inhibition
  TNF-α: 6251 pg/mL
  TNF-α Effect (%): −26* %
cyclooxygenase-2 (COX2); [2]
  PGE2: 3679 pg/mL
cyclooxygenase-2 (COX2); [3]
  PGE2 Effect (%): −66%
cyclooxygenase-2 (COX2); [4]
  PGE2: 5499 pg/mL
cyclooxygenase-2 (COX2); [5]
  PGE2 Effect (%): −49%
cyclooxygenase-2 (COX2); [6]
  PGE2: 2626 pg/mL
cyclooxygenase-2 (COX2); 30 μg/ml
  PGE2 Effect (%): −76%
cyclooxygenase-2 (COX2); [7]
  PGE2: 2232 pg/mL
cyclooxygenase-2 (COX2); 100 μg/ml
  PGE2 Effect (%): −79%
cyclooxygenase-2 (COX2); human whole blood
  inhibition of the activity of COX2 (in words): potent inhibition

## Cc1c(C)c2c(c(C)c1O)CCC(C)(C(=O)O)O2 (centres unmarked) [Trolox, reference compound]
[1]
  half-maximal inhibitory concentration, autoxidation of lipids: 1665 ng/mL

Source: patent US20080020068A1, “Use Of Trisubstituted Benzopyranones” (Dr.Willmar Schwabe GmbH & Co. KG, priority 2004, published 2008)
